Measured values published in patent US20260356821A1, “SOLID FORMS OF AN ERBB INHIBITOR” (Black Diamond Therapeutics, Inc., priority 2023, published 2026).
In brackets after ≈: the same amount, converted by molar mass. Entries after “also recorded” stand apart in the source; their conditions may differ.

Experiments:
Assay type in all cases: physicochemical
[1] = Bulk Stability (solid state; HPLC purity, color, XRPD)
Description: (§1) X-ray Powder Diffractometer (XRPD): XRPD analysis was performed using a Bruker D8 Advance X-ray powder diffractometer. Analysis was performed using parameters as set forth below.
(§2) High Performance Liquid Chromatograph (HPLC): HPLC analysis was performed using SHIMADZU LC-20AD/Agilent 1260 infinity II Binary Pump. Analysis was performed using parameters as set forth below.
Bulk Stability: Form M was evaluated for bulk stability studies. The bulk stability study was conducted in 3 conditions including 25 °C/92% RH in an open container, 40 °C/75% RH in an open container and 60 °C in a tight container for 1 week, 2 weeks and 4 weeks, respectively.

[2] = Solubility in aqueous media, 37 °C
Description: as §1, §2
Solubility: 6.39 mg of the L-malate salt Form M (equal to 4 mg free base) was weighed into an 8 mL vial. 2 mL of aqueous media was added, respectively. The suspension was stirred at 37 °C with 400 rpm for 2 h and 24 h. The suspension was taken out after 2 h and 24 h and then centrifuged at 14,000 rpm for 5 min. The supernatant was analyzed by HPLC. The pH of the supernatant was tested. The solids obtained (wet cakes) were characterized by XRPD. Table 3 summarizes the observation of the solubility study.

Hygroscopicity by DVS = conditions: 25 °C
Description: as §1
Dynamic Vapor Sorption (DVS): DVS analysis was performed using Intrinsic. Analysis was performed using parameters as set forth below.
Hygroscopicity: The hygroscopicity for Form M was examined by DVS.

[3] = Crystallinity after drying under vacuum
Description: as §1
To explore further optimization of the crystallinity of the salt, about 25 mg of dry cake were re-equilibrated in 7 different solvents for 3 days. Solids obtained were analyzed by XRPD and 1H-NMR. […]

[4] = 25 °C/92% RH, open container, 1 week
[5] = 40 °C/75% RH, open container, 1 week
[6] = 40 °C/75% RH, open container, 2 weeks
[7] = 40 °C/75% RH, open container, 4 weeks
[8] = 60 °C, tight container, 2 weeks

For `CN1C[C@H]2C[C@@]2(C#Cc2cc3ncnc(Nc4cccc(Cl)c4F)c3cc2NC(=O)/C=C/CN2CCOCC2)C1` [Form M, (E)-N-(4-((3-chloro-2-fluorophenyl)amino)-7-(((1R,5S)-3-methyl-3-azabicyclo[3.1.0]hexan-1-yl)ethynyl)quinazolin-6-yl)-4-morpholinobut-2-enamide], the “Bulk (XRPD)” value [1, 4] was “No form change (Agglomeration)”, the Color [1, 4] was “No change of color” and the Color ([1]; 25 °C/92% RH, open container, 2 weeks) was “No change of color”. For the same molecule, the “Bulk (XRPD)” value ([1]; 25 °C/92% RH, open container, 2 weeks, no form change after dried under ambient condition) was “Sticky sample;; also recorded: No form change after dried under ambient”, the Color ([1]; 25 °C/92% RH, open container, 4 weeks) was “No change of color” and the “Bulk (XRPD)” value ([1]; 25 °C/92% RH, open container, 4 weeks, no form change after dried under ambient condition) was “Sticky sample;; also recorded: No form change after dried under ambient”. The “Bulk (XRPD)” value [1, 5] was “No form change”, the Color [1, 5] was “No change of color” and the “Bulk (XRPD)” value [1, 6] was “No form change”. For the same molecule, the Color [1, 6] was “No change of color”, the “Bulk (XRPD)” value [1, 7] was “No form change” and the Color [1, 7] was “No change of color”. For the same molecule, the “Bulk (XRPD)” value ([1]; 60 °C, tight container, 1 week) was “No form change (Crystallinity decreased)”, the Color ([1]; 60 °C, tight container, 1 week) was “No change of color” and the “Bulk (XRPD)” value [1, 8] was “No form change (Crystallinity decreased)”. The Color [1, 8] was “No change of color”, the Color ([1]; 60 °C, tight container, 4 weeks) was “No change of color” and the “Bulk (XRPD)” value ([1]; 60 °C, tight container, 4 weeks, (Crystallinity decreased)) was “No form change; also recorded: (Crystallinity decreased)”. The “Initial Purity by HPLC” value ([1]; initial, before storage) was 94.0%, the Solubility ([2]; FaSSIF-v1, pH 6.5, 37 °C, 2 h) was “Degradation” and the “pH of the supernatant” value ([2]; FaSSIF-v1, pH 6.5, 37 °C, 2 h) was “pH 4.9”. The Solubility ([2]; FaSSIF-v1, pH 6.5, 37 °C, 24 h) was “Degradation”, the “pH of the supernatant” value ([2]; FaSSIF-v1, pH 6.5, 37 °C, 24 h) was “pH 4.8” and the Solubility ([2]; FeSSIF-v1, pH 5.0, 37 °C, 2 h) was “Degradation”. For the same molecule, the “pH of the supernatant” value ([2]; FeSSIF-v1, pH 5.0, 37 °C, 2 h) was “pH 4.9”, the Solubility ([2]; FeSSIF-v1, pH 5.0, 37 °C, 24 h) was “Degradation” and the “pH of the supernatant” value ([2]; FeSSIF-v1, pH 5.0, 37 °C, 24 h) was “pH 4.8”. The “pH of the supernatant” value ([2]; SGF, pH 2.0, 37 °C, 2 h) was “pH 2.8”, the solubility at 2 h ([2]; SGF, pH 2.0, 37 °C, 2 h) was over 2000 µg/mL and the “pH of the supernatant” value ([2]; SGF, pH 2.0, 37 °C, 24 h) was “pH 2.6”. The solubility at 24 h ([2]; SGF, pH 2.0, 37 °C, 24 h) was over 2000 µg/mL, the “pH of the supernatant” value ([2]; Water, 37 °C, 2 h) was “pH 4.3” and the solubility at 2 h ([2]; Water, 37 °C, 2 h) was 1490 µg/mL (≈ 2.65 mM). The “pH of the supernatant” value ([2]; Water, 37 °C, 24 h) was “pH 4.3”, the solubility at 24 h ([2]; Water, 37 °C, 24 h) was 1780 µg/mL (≈ 3.17 mM) and the solubility at 2 h ([2]; aqueous buffer, pH 4.5 (50 mM) acetate buffer, 37 °C, 2 h) was over 2000 µg/mL. For the same molecule, the solubility at 24 h ([2]; aqueous buffer, pH 4.5 (50 mM) acetate buffer, 37 °C, 24 h) was over 2000 µg/mL, the solubility at 2 h ([2]; aqueous buffer, pH 6.8 (50 mM) phosphate buffer, 37 °C, 2 h) was 183 µg/mL (≈ 0.326 mM) and the solubility at 24 h ([2]; aqueous buffer, pH 6.8 (50 mM) phosphate buffer, 37 °C, 24 h) was 189 µg/mL (≈ 0.336 mM). The “pH of the supernatant” value ([2]; pH 1.0 (0.1N HCl), 37 °C, 2 h) was “pH 0.9”, the solubility at 2 h ([2]; pH 1.0 (0.1N HCl), 37 °C, 2 h) was over 2000 µg/mL and the “pH of the supernatant” value ([2]; pH 1.0 (0.1N HCl), 37 °C, 24 h) was “pH 0.8”. The solubility at 24 h ([2]; pH 1.0 (0.1N HCl), 37 °C, 24 h) was over 2000 µg/mL, the “pH of the supernatant” value ([2]; pH 4.5 (50 mM) acetate buffer, 37 °C, 2 h, marked *) was “pH 4.5*” and the “pH of the supernatant” value ([2]; pH 4.5 (50 mM) acetate buffer, 37 °C, 24 h) was “pH 4.4”. For the same molecule, the “pH of the supernatant” value ([2]; pH 6.8 (50 mM) phosphate buffer, 37 °C, 2 h) was “pH 6.2”, the “pH of the supernatant” value ([2]; pH 6.8 (50 mM) phosphate buffer, 37 °C, 24 h) was “pH 6.3” and the “Desorp. (%)” value (Hygroscopicity by DVS; 0% RH, first desorption) was 0.0%. The “Sorp. (%)” value (Hygroscopicity by DVS; 0% RH, second sorption) was 0.0%, the “Desorp. (%)” value (Hygroscopicity by DVS; 10% RH, first desorption) was 1.4% and the “Sorp. (%)” value (Hygroscopicity by DVS; 10% RH, second sorption) was 0.6%. The “Desorp. (%)” value (Hygroscopicity by DVS; 20% RH, first desorption) was 2.5%, the “Sorp. (%)” value (Hygroscopicity by DVS; 20% RH, second sorption) was 1.4% and the “Desorp. (%)” value (Hygroscopicity by DVS; 30% RH, first desorption) was 3.6%. For the same molecule, the “Sorp. (%)” value (Hygroscopicity by DVS; 30% RH, second sorption) was 2.2%, the “Desorp. (%)” value (Hygroscopicity by DVS; 40% RH, first desorption) was 5.0% and the “Sorp. (%)” value (Hygroscopicity by DVS; 40% RH, first sorption) was 4.1%. The “Desorp. (%)” value (Hygroscopicity by DVS; 40% RH, second desorption) was 5.2%, the “Sorp. (%)” value (Hygroscopicity by DVS; 40% RH, second sorption) was 3.1% and the “Desorp. (%)” value (Hygroscopicity by DVS; 50% RH, first desorption) was 6.1%. The “Sorp. (%)” value (Hygroscopicity by DVS; 50% RH, first sorption) was 4.4%, the “Desorp. (%)” value (Hygroscopicity by DVS; 50% RH, second desorption) was 6.4% and the “Sorp. (%)” value (Hygroscopicity by DVS; 50% RH, second sorption) was 4.2%. The “Desorp. (%)” value (Hygroscopicity by DVS; 60% RH, first desorption) was 7.4%, the “Sorp. (%)” value (Hygroscopicity by DVS; 60% RH, first sorption) was 4.9% and the “Desorp. (%)” value (Hygroscopicity by DVS; 60% RH, second desorption) was 7.4%. For the same molecule, the “Sorp. (%)” value (Hygroscopicity by DVS; 60% RH, second sorption) was 5.6%, the “Desorp. (%)” value (Hygroscopicity by DVS; 70% RH, first desorption) was 9.3% and the “Sorp. (%)” value (Hygroscopicity by DVS; 70% RH, first sorption) was 5.6%. The “Desorp. (%)” value (Hygroscopicity by DVS; 70% RH, second desorption) was 8.7%, the “Sorp. (%)” value (Hygroscopicity by DVS; 70% RH, second sorption) was 7.5% and the “Desorp. (%)” value (Hygroscopicity by DVS; 80% RH, first desorption) was 13.5%. The “Sorp. (%)” value (Hygroscopicity by DVS; 80% RH, first sorption) was 6.9%, the “Desorp. (%)” value (Hygroscopicity by DVS; 80% RH, second desorption) was 11.4% and the “Sorp. (%)” value (Hygroscopicity by DVS; 80% RH, second sorption) was 9.7%. For the same molecule, the “Desorp. (%)” value (Hygroscopicity by DVS; 90% RH, first desorption) was 29.5%, the “Sorp. (%)” value (Hygroscopicity by DVS; 90% RH, first sorption) was 15.3% and the “Desorp. (%)” value (Hygroscopicity by DVS; 90% RH, second desorption) was 20.9%. The “Sorp. (%)” value (Hygroscopicity by DVS; 90% RH, second sorption) was 15.8%, the “Desorp. (%)” value (Hygroscopicity by DVS; 95% RH, first desorption) was 41.2% and the “Sorp. (%)” value (Hygroscopicity by DVS; 95% RH, first sorption) was 41.2%. The “Desorp. (%)” value (Hygroscopicity by DVS; 95% RH, second desorption) was 31.5%, the “Sorp. (%)” value (Hygroscopicity by DVS; 95% RH, second sorption) was 31.5% and the “XRPD after DVS test” value (Hygroscopicity by DVS; after cycle 40-95-0-95-40% RH) was “No form change”. The DVS (Hygroscopicity by DVS; at 70% RH) was 1.5% at 70% RH, the DVS (Hygroscopicity by DVS; at 95% RH) was 37.1% at 95% RH and the crystallinity after drying [3] was “crystallinity decreased”.
